What all share (assay): ≥ marks a high value that may be exact or a test limit, other limits are often not marked, values filed in µg/mL are converted to µM
Experiment [1] concerns Staphylococcus aureus ATCC 27660.
Experiment [2] has as its system Staphylococcus epidermidis ATCC 14990.
Experiment [3] concerns Salmonella enterica subsp. enterica serovar Typhimurium ATCC 700931.
Experiment [4] concerns Escherichia coli D31.
For experiment [5], the system named is Pseudomonas aeruginosa ATCC 10145.
Experiment [6] has as its system Fusarium oxysporum f.sp. vasinfectum.
Experiment [7] deals with Ramulariopsis gossypii.
In experiment [8] the test system is Pectobacterium carotovorum.
Experiment [9] deals with Bacillus subtilis ATCC 23857.
Experiment [10] relates to Pseudomonas syringae pv. tabaci.
For experiment [11], the system named is Candida albicans ATCC 90028.
In experiment [12] the test system is Trichoderma asperellum.
Experiment [13] has as its system Cryptococcus neoformans ATCC 28957.
Experiment [14] deals with Fusarium oxysporum.
In experiment [15] the test system is Fusarium solani.
The subject of experiment [16] is Staphylococcus aureus ATCC 25923.
Experiment [17] relates to Escherichia coli ATCC 25922.
The subject of experiment [18] is Bacillus subtilis DELTA.
Experiment [19] concerns Escherichia coli DH5alpha.
The test system of experiment [20] is Zymomonas mobilis ATCC 10988.
In experiment [21] the test system is Pseudomonas aeruginosa PAO1.
Experiment [22] relates to Candida parapsilosis.
Experiment [23] has as its system Staphylococcus aureus CMCC 26003.
The test system of experiment [24] is Listeria monocytogenes ATCC 19115.
For experiment [25], the system named is Bacillus subtilis CMCC 63501.
Experiment [26] has as its system Micrococcus luteus AB2010179.
The test system of experiment [27] is Enterobacter cloacae AB2010162.
In experiment [28] the test system is Salmonella enterica AB2010185.
The subject of experiment [29] is Bacillus magaterium AB90008.
Experiment [30] concerns Pseudomonas putida.
In experiment [31] the test system is Pseudomonas fluorescens.
In experiment [32] the test system is Staphylococcus aureus AB94004.
Experiment [33] relates to Staphylococcus aureus NBRC 13276.
For experiment [34], the system named is Pseudomonas aeruginosa NBRC 13275.
Experiment [35] has as its system Escherichia coli NBRC 3972.

Nine compounds from DBAASP can be followed below.

Each structure is given as a SMILES string. Values after ≈ are worked out from the molar mass of the structure shown.

As a reminder, the MIC is the least concentration at which growth counts as inhibited. Low values mean inhibition by little substance, high ones a need for much substance. Take `CC(C)C[C@H](NC(=O)[C@H](C)N)C(=O)N[C@@H](Cc1c[nH]c2ccccc12)C(=O)N[C@@H](CCCCN)C(=O)N[C@@H](CCCCN)C(=O)N[C@@H](CC(C)C)C(=O)N[C@@H](CC(C)C)C(=O)N[C@@H](CCCCN)C(=O)N[C@@H](CCCCN)C(=O)N[C@@H](CC(C)C)C(=O)N[C@@H](CC(C)C)C(=O)N[C@@H](CCCCN)C(=O)N[C@@H](CO)C(=O)N[C@@H](C)C(=O)N[C@@H](CCCCN)C(=O)N[C@@H](CCCCN)C(=O)N[C@@H](CC(C)C)C(=O)NCC(=O)O` [ALWKKLLKKLLKSAKKLG]: the MIC in experiment [1] turned out to be 1.88 µM (≈ 3.89 µg/mL); in [2], 0.94 µM (≈ 1.94 µg/mL); in [3], 1.88 µM (≈ 3.89 µg/mL); in [4] it was 0.94 µM (≈ 1.94 µg/mL); in [5], 1.88 µM (≈ 3.89 µg/mL).

Turning to `CC(C)[C@H](NC(=O)[C@H](C)N)C(=O)N[C@@H](Cc1c[nH]c2ccccc12)C(=O)N[C@@H](CCCCN)C(=O)N[C@@H](CCCCN)C(=O)N[C@H](C(=O)N[C@H](C(=O)N[C@@H](CCCCN)C(=O)N[C@@H](CCCCN)C(=O)N[C@H](C(=O)N[C@H](C(=O)N[C@@H](CCCCN)C(=O)N[C@@H](CO)C(=O)N[C@@H](C)C(=O)N[C@@H](CCCCN)C(=O)N[C@@H](CCCCN)C(=O)N[C@H](C(=O)NCC(=O)O)C(C)C)C(C)C)C(C)C)C(C)C)C(C)C` [AVWKKVVKKVVKSAKKVG], the MIC came to 7.5 µM (≈ 14.9 µg/mL) in experiment [1]; 7.5 µM (≈ 14.9 µg/mL) in experiment [2]; 7.5 µM (≈ 14.9 µg/mL) in [3]; 3.75 µM (≈ 7.43 µg/mL) in [4]; 7.5 µM (≈ 14.9 µg/mL) in [5].

For the compound `CC[C@H](C)[C@H](NC(=O)[C@H](CCCCN)NC(=O)[C@@H](NC(=O)[C@@H](NC(=O)[C@H](CC(N)=O)NC(=O)[C@H](Cc1ccc(O)cc1)NC(=O)[C@H](Cc1ccccc1)NC(=O)[C@@H](N)Cc1ccccc1)C(C)C)[C@@H](C)CC)C(=O)N[C@@H](Cc1ccc(O)cc1)C(=O)NCC(=O)N[C@@H](CC(N)=O)C(=O)N[C@@H](CCSC)C(=O)N[C@@H](C)C(=O)NCC(=O)N[C@@H](CCCN=C(N)N)C(=O)N[C@H](C(=O)N[C@@H](CO)C(=O)N[C@@H](CCCCN)C(N)=O)[C@@H](C)CC` [FFYNVIKIYGNMAGRISK], the minimal inhibitory concentration (MIC) in experiment [6] is at least 128 µM; in [7] it was at least 64 µM; in [8] it was 16 µM (≈ 33.9 µg/mL); in [9] it was at least 64 µM; in [10], at least 128 µM; in [11], at least 128 µM. Further, the MIC is at least 256 µM in [12]; at least 32 µM in experiment [13]; at least 128 µM in experiment [14]; at least 128 µM in experiment [15]; 128 µM (≈ 271 µg/mL) in [16]; 128 µM (≈ 271 µg/mL) in [17].

On to `CC[C@H](C)[C@H](NC(=O)[C@H](CCCN=C(N)N)NC(=O)[C@H](CCCCN)NC(=O)[C@H](Cc1ccccc1)NC(C)=O)C(=O)N[C@H](C(=O)N[C@@H](CCC(N)=O)C(=O)N[C@@H](CC(C)C)C(=O)N[C@@H](CC(C)C)C(=O)N[C@@H](CCCCN)C(=O)N[C@@H](CCCCN)C(=O)N[C@@H](CC(C)C)C(=O)N[C@@H](CC(C)C)C(=O)N[C@@H](CCCN=C(N)N)C(N)=O)C(C)C` [FKRIVQLLKKLLR], for which the MIC in experiment [18] was 6.04 µM (≈ 10.2 µg/mL); in [19] it was at least 60.4 µM; in experiment [20], 3.02 µM (≈ 5.12 µg/mL); in [21], 1.81 µM (≈ 3.07 µg/mL); in experiment [22], 24.2 µM (≈ 41 µg/mL).

In the case of `CC[C@H](C)[C@H](NC(=O)[C@H](CCCN=C(N)N)NC(=O)[C@H](CCCN=C(N)N)NC(=O)[C@H](CC(C)C)NC(=O)[C@@H](N)Cc1ccccc1)C(=O)N[C@@H](CCCN=C(N)N)C(=O)N[C@H](C(=O)N[C@H](C(=O)N1CCC[C@H]1C(=O)N[C@@H](Cc1c[nH]c2ccccc12)C(=O)N[C@H](C(=O)N[C@@H](CC(N)=O)C(=O)N1CCC[C@H]1C(=O)N1CCC[C@H]1C(=O)N[C@@H](Cc1ccccc1)C(=O)N[C@@H](CC(C)C)C(=O)N[C@@H](CCC(N)=O)C(=O)N[C@@H](CCC(N)=O)C(=O)N[C@H](C(N)=O)[C@@H](C)O)C(C)C)[C@@H](C)O)C(C)C` [FLRRIRVTPWVNPPFLQQT], the MIC in [23] was at least 108 µM; in [24], at least 54 µM.

On to `CC[C@H](C)[C@H](NC(=O)[C@H](CCCN=C(N)N)NC(=O)[C@H](CCCN=C(N)N)NC(=O)[C@H](Cc1c[nH]c2ccccc12)NC(=O)[C@@H](N)Cc1ccccc1)C(=O)N[C@@H](CCCN=C(N)N)C(=O)N[C@H](C(=O)N[C@H](C(=O)N1CCC[C@H]1C(=O)N[C@@H](Cc1c[nH]c2ccccc12)C(=O)N[C@H](C(=O)N[C@@H](CC(N)=O)C(=O)N1CCC[C@H]1C(=O)N1CCC[C@H]1C(=O)N[C@@H](Cc1ccccc1)C(=O)N[C@@H](CC(C)C)C(=O)N[C@@H](CCC(N)=O)C(=O)N[C@@H](CCC(N)=O)C(=O)N[C@H](C(N)=O)[C@@H](C)O)C(C)C)[C@@H](C)O)C(C)C` [FWRRIRVTPWVNPPFLQQT], for which the minimal inhibitory concentration (MIC) in experiment [23] was 26.2 µM (≈ 64 µg/mL); in experiment [24], 26.2 µM (≈ 64 µg/mL); in [25], at least 105 µM.

Consider `CC[C@H](C)[C@H](N)C(=O)N[C@@H](CC(C)C)C(=O)NCC(=O)N[C@@H](CCCCN)C(=O)N[C@H](C(=O)N[C@@H](Cc1c[nH]c2ccccc12)C(=O)N[C@@H](CCCCN)C(=O)NCC(=O)N[C@H](C(=O)N[C@@H](CCCCN)C(=O)N[C@@H](CC(N)=O)C(=O)N[C@H](C(=O)N[C@@H](CC(C)C)C(N)=O)[C@@H](C)CC)[C@@H](C)CC)[C@@H](C)CC` [ILGKIWKGIKNIL], for which the MIC is 2 µM (≈ 2.99 µg/mL) in experiment [26]; at least 82 µM in experiment [27]; at least 35 µM in experiment [28]; at least 82 µM in experiment [19]; at least 50 µM in [29]; 16 µM (≈ 23.9 µg/mL) in [30]. Moreover, the values for the MIC in experiment [31] and in experiment [32] were at least 32 µM and 12 µM (≈ 17.9 µg/mL), respectively.

As to `CC(=O)N[C@@H](CCCCN)C(=O)N[C@@H](CCCCN)C(=O)NCC(=O)N[C@@H](CCCCN)C(=O)N[C@@H](CCCCN)C(=O)NCC(=O)N[C@@H](CCCCN)C(=O)N[C@@H](CCCCN)C(=O)NCC(N)=O` [KKGKKGKKG], the minimal inhibitory concentration (MIC) in [33], in [34] and in experiment [35] was at least 800 µM in each case.

As to `CC[C@H](C)[C@H](NC(=O)[C@H](Cc1ccccc1)NC(=O)[C@H](CCCCN)NC(=O)[C@H](CC(C)C)NC(=O)[C@H](CC(C)C)NC(=O)[C@@H](N)CCCCN)C(=O)N[C@@H](CCCCN)C(=O)N[C@@H](CCCCN)C(=O)N[C@@H](CC(C)C)C(=O)N[C@@H](CC(C)C)C(N)=O` [KLLKFIKKLL], the MIC in [18] is at least 32.2 µM; in experiment [19] it was at least 322 µM; in experiment [20], 8.04 µM (≈ 9.99 µg/mL); in experiment [22] it was 24.1 µM (≈ 30 µg/mL).
